Experimental data reported in patent US8981149B2, “Compounds modulating the hedgehog protein signaling pathway, marked forms thereof, and applications” (Centre National De La Recherche Scientifique, priority 2011, dated 2015).
Where “and” joins values, the source holds several entries; their conditions need not be identical. Identical values can stand only once. Counter-ions that a name gives are not always drawn. Like-named read-outs stand apart in the source and are kept apart here. One block for each molecule: values may come before it.

How the values were obtained:
[1] = system: C3H10T1/2 cells; experiment: Differentiation of C3H10T1/2 cells induced by SAG, alkaline phosphatase (AP) activity; type: cell-based, mouse
Method: The test compounds of formula (I) were dissolved in dimethylsulfoxide up to a concentration of 10 mM, then stored at a temperature of −20° C. until used.
The line of C3H10T1/2 pluripotent fibroblast cells (ATCC) was cultured in the conditions recommended by the ATCC. These cells were activated using 0.1 μM of SAG according to the methods described by Chen et al., Proc. Natl. Acad. Sci. USA, 2002, 99, 14071 and Frank-Kamenetsky et al., J. Biol., 2002, 1, 10.
Activation by SAG causes differentiation of the cell line and allows it to express alkaline phosphatase (AP). It was thus possible to measure the activity of the Hedgehog protein signalling pathway via measurement of the alkaline phosphatase (AP) activity.
The C3H10T1/2 cells were seeded on 96-well plates at a density of 5.10^3 cells per well, 24 hours before adding the test compounds at a concentration varying from 1 nM to 30 μM and in the presence of 0.1 μM of SAG, using DMEM (Dulbecco's Modified Eagle's Medium) with 10% fetal calf serum as culture medium. The tests were carried out in quadruplicate. The plates were then incubated for 5 to 6 days at a temperature of 37° C. under 5% CO2 atmosphere. The cells were then washed in cold phosphate buffer (“Phosphate Buffer Serum”: PBS), then lysed by sonication at 4° C. in 50 μL of a solution containing 0.9% of NaCl and 0.2% of Triton X-100.
Measurement of the alkaline phosphatase (AP) activity in the lysates thus obtained was then performed according to the method described by Pepinsky et al. (J. Biol. Chem., 1998, 273, 14037). After adding 100 μL of reaction buffer (200 mM Tris-HCl; pH 10.5; 0.4 M of 2-amino-2-methylpropanol and 8 mM of MgCl2) and 50 μL of substrate (4 mM of p-nitrophenyl disodium phosphate), the lysates were incubated at 37° C. for 30-60 min, then the optical density was read at a wavelength of 415 nm.

[2] = system: PCGs of rat cerebellum; experiment: Proliferation of granule cell precursors (PCGs) of rat cerebellum induced by SAG, 3H-thymidine incorporation; type: cell-based; conditions: proliferation induced by SAG (0.01 μM), 3H-thymidine incorporation, read-out: IC50 ± SEM, PCGs of rat cerebellum (3)
Method: The granule cell precursors (GCP) are isolated from cerebellums of rats (IFFA-CREDO, France), 8 days after birth (P8). The cerebellums are taken, cut into small pieces, placed in Krebs-Ringer buffer (120 mM NaCl, 5 mM KCl, 1 mM KH2PO4, 25 mM NaHCO3, 15 mM glucose, 0.04 mM phenol red) and incubated for 15 minutes at room temperature in a dissociation buffer composed of Krebs-Ringer with addition of 250 mg/ml of trypsin (Sigma, France). Enzymatic dissociation is stopped by adding an equal volume of Krebs-Ringer buffer containing 250 mg/ml of a trypsin inhibitor and 80 mg/ml of DNase (Sigma, France). The tissue is centrifuged at 100 g for 10 seconds and the pellet obtained is resuspended and triturated using Pasteur pipettes of decreasing diameter to obtain a suspension of isolated cells. This suspension is centrifuged at 200 g for 5 minutes and the pellet obtained is resuspended in Neurobasal medium supplemented with 1 mM of pyruvate, 2 mM L-glutamine, penicillin/streptomycin and 1% of supplement N2, 60 mg/ml N-acetyl cysteine and […] of bovine serum albumin (BSA, Sigma, France).
The cerebellar GCPs obtained are transferred to 96-well plates treated beforehand with poly-D-lysine at a density of 2.10^5 cells/well. SAG in the presence or absence of the other test compounds is added immediately. 12 hours before the end of culture, tritiated thymidine (^3H-thymidine) is added. The cells are aspirated and recovered on a glass fiber filter (GF/C) using an automated cell collector (Brandel, USA). The amount of radioactivity incorporated by the cells was quantified in the presence of a scintillating agent in a liquid scintillation counter (Wallac, USA).
The cerebellar PCGs proliferate in response to activation of the Shh signalling pathway, a response that can be inhibited by the Smo antagonists (Rohatgi et al., 2009, Proc. Natl. Acad. Sci. USA 106: 3196-201). We therefore analyzed the capacity of compound (7d) for inhibiting the proliferation of the PCGs of rat cerebellum in primary culture by measuring the incorporation of tritiated thymidine, a marker of DNA newly synthesized during the proliferation process.

[3] = biological target: T1, human Smo receptor (Homo sapiens, UniProt Q99835); experiment: Competition with bodipy-cyclopamine (BC) binding in HEK-hSmo cells; conditions: for IC50: bodipy-cyclopamine (5 nM), HEK-hSmo cells, read-out: IC50 ± SEM, BC binding (4)
T1 construct: expressed in transfected cells
Method: Cells of the HEK293 line stably transfected with the human Smo receptor are used. The experiment was conducted according to the protocol described in Roudaut et al., Mol. Pharmacol. 79: 453-460, 2011.
At the end of the incubation, the cells are fixed and stained with DAPI, a fluorescent molecule with high affinity for DNA which makes it possible to visualize the nuclei in blue in fluorescence microscopy.

[4] = biological target: T2, human Smoothened receptor (Homo sapiens, UniProt Q99835); experiment: Inhibition of binding of 3H-(7d) to membranes of HEK-hSmo cells; conditions: for Ki: read-out: Ki ± SEM, binding of compound 3H-(7d)
T2 construct: expressed in transfected cells
Method: The binding test is carried out on membranes enriched with Smoothened receptor. Cells of the HEK-hSmo line were used for preparing these membranes. The cells are washed and recovered in iced PBS. After centrifugation at 100 g for 7 minutes at 4° C., the pellet is taken up in 10 times its volume of an iced buffer A (50 mM HEPES, pH 7.4, 1 mM EDTA) with addition of 10 μl of a cocktail of protease inhibitors (PEAK, Sigma) per ml of buffer, then it is homogenized using a Polytron grinding mill. After centrifugation at 500 g for 30 minutes at 4° C., which makes it possible to remove the nuclei from the cells, the supernatant is centrifuged again at 48 000 g for 45 min at 4° C. The pellet is taken up in 2 ml of buffer A with PEAK added, then the suspension is homogenized using a glass conical grinding mill and is passed through a 23 G needle. Finally, aliquots are placed in Eppendorf tubes and stored at −80° C. The concentration of total protein in the preparation is determined by Lowry's method using BSA for preparing the standard range.
The membranes are resuspended in a buffer (50 mM HEPES and 3 mM MgCl2) containing 0.2% of BSA. The tests of binding of ^3H-(7d) are carried out in polypropylene tubes. The membranes (2 μg of proteins) are incubated with the ^3H-(7d) in the presence or absence of the cold test compounds for 3 hours at 37° C. in a final volume of 400 μl. Incubation is stopped by immersing the tubes in iced water followed by rapid filtration (Brandel) through a glass fiber filtration membrane (GF/C) treated beforehand with 0.3% of polyethylenimine, which can reduce the nonspecific binding of the ^3H-(7d) to the filtration membrane. The radioactivity retained on the filter is measured in the presence of 3 ml of scintillating agent in a liquid scintillation counter.
In this experiment, the cold ligand competes with the radioactive ligand for binding to the receptor, and the affinity (Ki) of each cold ligand for the receptor can be analyzed based on the IC50 values deduced from the inhibition curves.

[5] = system: cells; conditions: Borzillo et al., 2005; cited from earlier work
[6] = Binding of 3H-(7d) to membranes of HEK293 cells not transfected with human Smo cDNA; conditions: 1 μM
[7] = Mus musculus, C3H 10T1/2, AP activity, differentiation induced by SAG (0.1 μM), read-out: IC50 ± SEM, C3H10T1/2 cells (2)
[8] = Mus musculus, C3H 10T1/2, after induction by SAG at 0.1 μM, read-out: IC50, inhibition of alkaline phosphatase (AP) activity, differentiation of C3H10T1/2 cells
[9] = 0.35 nM 3H-(7d), HEK-hSmo membranes, 3 hours at 37° C., read-out: IC50 ± SEM, binding of compound 3H-(7d)
[10] = calculated from IC50, HEK-hSmo membranes
[11] = AP activity, differentiation induced by SAG (0.1 μM), read-out: IC50 ± SEM, C3H10T1/2 cells (2)
[12] = after induction by SAG at 0.1 μM, read-out: IC50, inhibition of alkaline phosphatase (AP) activity, differentiation of C3H10T1/2 cells

T1 sequence (Q99835 28-787): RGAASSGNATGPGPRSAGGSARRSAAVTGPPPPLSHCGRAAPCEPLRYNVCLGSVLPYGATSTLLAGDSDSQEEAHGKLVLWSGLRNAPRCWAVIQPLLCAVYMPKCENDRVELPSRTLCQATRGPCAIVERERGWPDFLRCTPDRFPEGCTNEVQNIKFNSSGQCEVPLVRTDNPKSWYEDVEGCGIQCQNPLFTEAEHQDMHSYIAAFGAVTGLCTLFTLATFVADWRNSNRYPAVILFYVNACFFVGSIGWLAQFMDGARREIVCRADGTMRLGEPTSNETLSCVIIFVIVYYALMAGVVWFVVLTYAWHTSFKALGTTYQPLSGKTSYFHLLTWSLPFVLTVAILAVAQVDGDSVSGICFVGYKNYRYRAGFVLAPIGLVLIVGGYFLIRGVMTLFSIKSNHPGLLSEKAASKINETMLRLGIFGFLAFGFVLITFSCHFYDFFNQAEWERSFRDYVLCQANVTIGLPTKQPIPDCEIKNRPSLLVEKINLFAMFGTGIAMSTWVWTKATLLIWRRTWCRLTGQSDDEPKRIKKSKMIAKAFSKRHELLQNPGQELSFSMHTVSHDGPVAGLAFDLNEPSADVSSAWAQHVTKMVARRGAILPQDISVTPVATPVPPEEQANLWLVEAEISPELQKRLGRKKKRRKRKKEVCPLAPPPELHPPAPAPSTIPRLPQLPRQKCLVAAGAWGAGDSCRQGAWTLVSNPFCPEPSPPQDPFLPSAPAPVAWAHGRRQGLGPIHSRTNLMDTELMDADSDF
T2 sequence (Q99835 28-787): as above

IC50 [1, 7]: 22 ± 3 nM
IC50 [1, 8]: 22 ± 3 nM
IC50 [3]: 8 ± 2 nM
IC50 [4, 9]: 4 nM and 4.2 nM
Ki [4, 10]: 1.9 ± 0.3 nM
Molecule: Cc1c(C(=O)Nc2ccc(N3C[C@@H](C)O[C@@H](C)C3)nc2)cccc1-c1ccc(OC(F)(F)F)cc1 [LDE225]
IC50 ([2]; Rattus norvegicus): 3 nM

IC50 [1, 8]: 57 ± 2 nM
Molecule: COc1cc(C(=O)NC(=N)Nc2ccc(C)c(NC(=O)c3ccc(C/C=C/c4ccccc4)cc3)c2)cc(OC)c1OC [Compound 7e, (E)-N—(N-(3-(4-cinnamylbenzamido)-4-methylphenyl)carbamimidoyl)-3,4,5-trimethoxybenzamide hydrochloride]

Molecule: cyclopamine
IC50 [1, 11]: 620 ± 30 nM
IC50 [1, 12]: 620 ± 30 nM
IC50 [2]: 103 nM
Concentration cytotoxic for the cells [5]: above 10 μM

IC50 [1, 7]: 10 ± 3 nM
IC50 [1, 8]: 10 ± 1 nM
Inhibition of the specific binding of compound 3H-(7d) at a single concentration ([4]; 1 μM): completely inhibits
Molecule: CS(=O)(=O)c1ccc(C(=O)Nc2ccc(Cl)c(-c3ccccn3)c2)c(Cl)c1 [GDC-0449]
IC50 ([2]; Rattus norvegicus): 8 ± 1 nM
Effect on the binding of compound 3H-(7d) to non-transfected membranes [6]: no effect

IC50 [1, 8]: 28 ± 3 nM
Molecule: COc1cc(C(=O)NC(=N)Nc2ccc(C)c(NC(=O)c3ccc4c(c3)Cc3ccccc3-4)c2)cc(OC)c1OC [Compound 7b, N-(2-methyl-5-(3-(3,4,5-trimethoxybenzoyl)guanidino)phenyl)-9H-fluorene-2-carboxamide hydrochloride]

Inhibition of the binding of compound 3H-(7d), in words ([4]; HEK-hSmo membranes): micromolar order
Molecule: COc1cccc(CN(C(=O)CC(C)(C)C)[C@H]2C[C@@H](C(=O)N3CCNCC3)N(Cc3ccc4c(c3)OCO4)C2)c1 [Cur61414]

IC50 [1, 8]: 32 ± 11 nM
Molecule: COc1cc(C(=O)NC(=N)Nc2ccc(C)c(NC(=O)c3ccc(C(=O)c4ccccc4)cc3)c2)cc(OC)c1OC [Compound 7a, N—(N-(3-(4-benzoylbenzamido)-4-methylphenyl)carbamimidoyl)-3,4,5-trimethoxybenzamide hydrochloride]

IC50 ([1]; SAG 0.1 μM, Mean ± SEM, n ≧ 3, read-out: IC50, differentiation of C3H10T1/2 cells): 900 ± 200 nM
Molecule: COc1cc(C(=O)NC(=S)Nc2cccc(NC(=O)c3ccccc3)c2)cc(OC)c1OC [MRT-10]

IC50 ± SEM, binding of compound 3H-(7d) ([4]; 0.35 nM 3H-(7d), HEK-hSmo membranes, 3 hours at 37° C.): inactive
Inhibition of the binding of compound 3H-(7d), in words ([4]; HEK-hSmo membranes): not active
IC50 ([4]; HEK-hSmo membranes, agonists (FIG. 5), read-out: IC50, binding of compound 3H-(7d), unit inferred): > 1000 nM
Ki ± SEM, binding of compound 3H-(7d) [4, 10]: inactive
Molecule: c1ccc2c(Oc3nc(Nc4ccc(N5CCOCC5)cc4)c4ncn(C5CCCCC5)c4n3)cccc2c1 [Purmorphamine, purmorphamine]

IC50 [1, 8]: 220 ± 25 nM
Molecule: COc1cc(C(=O)NC(=N)Nc2ccc(C)c(NC(=O)c3ccc(Cc4ccccc4)cc3)c2)cc(OC)c1OC [Compound 7g, N—(N-(3-(4-benzylbenzamido)-4-methylphenyl)carbamimidoyl)-3,4,5-trimethoxybenzamide hydrochloride]

IC50 [1, 8]: 72 ± 15 nM
Molecule: COc1cc(C(=O)NC(=N)Nc2ccc(C)c(NC(=O)c3ccc(OCc4ccccc4)cc3)c2)cc(OC)c1OC [Compound 7h, N—(N-(3-(4-(benzyloxy)benzamido)-4-methylphenyl)carbamimidoyl)-3,4,5-trimethoxybenzamide hydrochloride]

IC50 [1, 11]: 11 ± 3 nM
IC50 [1, 12]: 11 ± 3 nM
Block of the binding of BC to HEK-hSmo cells, in words ([3]; BC 5 nM, 2 hours): very similar and high
IC50 [3]: 5 ± 3 nM
IC50 [4, 9]: 11 nM and 10.5 nM
Ki [4, 10]: 4.8 ± 1.2 nM
Molecule: COc1cc(C(=O)NC(N)=Nc2ccc(C)c(NC(=O)c3ccc(-c4ccccc4)cc3)c2)cc(OC)c1OC [MRT-83]
IC50 [2]: 6 nM

IC50 [4, 9]: 5 nM and 5.2 nM
Ki [4, 10]: 2.4 ± 0.3 nM
Molecule: CNC1CCC(N(Cc2cccc(-c3ccncc3)c2)C(=O)c2sc3ccccc3c2Cl)CC1 (centres unmarked) [SAG]
